System: Parc-overexpressing (Flag-Parc/U2OS) cells
Test: Subcellular p53 localization by immunofluorescent staining (anti-p53 1801)
Assay type: cell-based, human
Settings: etoposide 1 μM for 6 hours
From the text: FIGS. 10A and 10B Parc over-expression abrogates stress-induced nuclear localization of endogenous p53 in U2OS cells. […] The etoposide-treated cells were immunostained with anti-p53 antibody (1801) (visualized by fluorescence) and counterstained with DAPI to visualize the nuclei. (B) Quantification of subcellular p53 localization in parental U2OS and in Parc-overexpressing (Flag-Parc/U2OS) cell lines after the cells were immunostained with the anti-p53 antibody (1801).
For the p53 cytoplasmic sequestration assay, cells were transfected with 30 ng/well CMV-p53 and 150 ng/well CMV-Parc. 24 hours post-transfection cells were fixed with 4% paraformaldehyde for 20 min. on ice, rehydrated for 5 min in serum-free DMEM and permeabilized with 0.2% Triton X100 (Fisher) for 10 min on ice. Cells were incubated in 1% bovine serum albumin (BSA) (Sigma)/Phosphate Buffered Salt solution (PBS) (Cellgro) for 30 min. Primary p53-specific monoclonal (for endogenous p53 immunostaining) (DO-1, 1801, Santa Cruz) or polyclonal (for transfected p53 immunostaining) (FL-393, Santa Cruz) antibodies or anti-Flag monoclonal antibody (for transfected Flag-Parc and Flag-Myc immunostaining) (Santa Cruz) were added in 1% BSA/PBS for 45 min at room temperature. […]

Structure (SMILES): COc1cc([C@@H]2c3cc4c(cc3[C@@H](O[C@@H]3O[C@@H]5CO[C@@H](C)O[C@H]5[C@H](O)[C@H]3O)[C@H]3COC(=O)[C@H]23)OCO4)cc(OC)c1O [etoposide]
- cells with nuclear p53 staining: less than 30%
